Reference: patent US20240165094A1, “METHODS AND COMPOSITIONS FOR TREATING MELANOMA” (INSTITUT NATIONAL DE LA SANTÉ ET DE LA RECHERCHE MÉDICALE, priority 2021, published 2024)

Experiments:
M238R cells [1] = test: Viability assay (crystal violet staining of attached cells), BRAFi-resistant cells; assay type: cell-based, human; conditions: 3 days
Method: FIG. 1. Nintedanib sensitizes melanoma cells to BRAFi/MEKi therapy and prevents BRAFi/MEKi-driven ECM remodeling. (A) BRAFi-resistant M238R cells were treated with vehicle (Ctrl), Nintedanib (2 μM), Vemurafenib and Trametinib (BRAFi/MEKi, 5 μM) or Vemurafenib/Trametinib (5 μM) plus Nintedanib (2 μM) for 3 days. Cell viability was assessed by crystal violet staining of attached cells. (B) BRAFi-sensitive parental M238P cells were treated with vehicle (Ctrl), Nintedanib (2 μM) Vemurafenib and Trametinib (BRAFi/MEKi, 1 μM) or Vemurafenib/Trametinib (1 μM) plus Nintedanib (2 μM) for 3 days. Cell viability was assessed by crystal violet staining of attached cells. Paired Student t-test has been used for statistical analysis. ****P≤0.0001. Data is represented as mean ±SE from a triplicate representative of at least 3 independent experiments.
The isogenic pair of Vemurafenib-sensitive and -resistant human BRAF-mutated melanoma cells M238 was provided by R. Lo (Nazarian et al., 2010). YUMM1.7 mouse melanoma cells were a kind gift from M. Bosenberg (Meeth et al., 2016). […]
After the indicated treatments, cells were stained with 0.04% crystal violet, 20% ethanol in PBS for 30 min. […] The crystal violet dye is solubilized by 10% acetic acid in PBS and measured by absorbance at 595 nm.

M238P cells = test: Viability assay (crystal violet staining of attached cells), BRAFi-sensitive parental cells; assay type: cell-based, human; conditions: 3 days
Method: Melanoma cells were cultured in Dulbecco's modified Eagle medium (DMEM) supplemented with 7% FBS (Hyclone) and 1% penicillin/streptomycin. Resistant cells were continuously exposed to 1 μM of Vemurafenib. […] BRAFi (PLX4032, Vemurafenib), MEKi (GSK1120212, Trametinib) and Nintedanib (BIBF1120) were from Selleckem.

M238R cells [2] = test: Real-time quantitative PCR gene expression in BRAFi-resistant cells; assay type: cell-based, human; conditions: data not shown
Method: (§1) Total RNA was extracted from tumors and cell samples with the miRNeasy Mini Kit (Qiagen) according to the manufacturer's instructions.
(§2) 1 μg of extracted RNA from cells was reverse transcribed into cDNA using the Multiscribe reverse transcriptase kit provided by Applied Biosystems. Primers were designed using PrimerBank or adopted from published studies. Gene expression levels were measured using Platinum SYBR Green qPCR Supermix (Fisher Scientific) and Step One thermocycler (Applied Biosystem). Results from qPCR were normalized using the reference gene RPL32 and relative gene expression was quantified with the ΔΔCt method. Heatmaps describing gene expression fold changes were prepared using MeV software. cDNAs from tumors were prepared from 100 ng of RNA using Fluidigm Reverse Transcription Master Mix (Fluidigm PN 100-647297). Following a pre-amplification step (Fluidigm® PreAmp Master Mix and DELTAgene™ Assay kits) and exonuclease I treatment, samples diluted in Eva-Green® Supermix with Low ROX were loaded with primer reaction mixes in 96.96 Dynamic Array™ IFCs. Gene expression was then assessed on a Fluidigm BioMark HD instrument. Data were analyzed with real-time PCR analysis software (Fluidigm Corporation), and presented as relative gene expression according to the ΔΔCt method. Heat maps depicting fold changes of gene expression were prepared using MeV software.

M238P melanoma cells = test: Real-time quantitative PCR gene expression in BRAFi-sensitive cells; assay type: cell-based, human; conditions: data not shown
Method: as §1, §2

[3] = system: YUMM1.7 Braf-mutant melanoma; test: Syngenic model of murine YUMM1.7 Braf-mutant melanoma: tumor growth, relapse, survival; assay type: in vivo, mouse
Source text: FIG. 2. Nintedanib enhances MAPK-targeted therapy efficacy, delays tumor relapse, improves mice survival and normalizes the pro-fibrotic stromal reaction. Kaplan-Meier survival curves of mice treated with vehicle, Nintedanib, MAPK-targeted therapy (BRAFi+MEKi) or MAPK-targeted therapy plus Nintedanib. Log rank (Mantel-Cox) statistical test was used for MAPK-targeted therapy vs MAPK targeted therapy/Nintedanib. ****p<0.0001.
FIG. 4. Nintedanib, but not Pirfenidone, enhances MAPK-targeted therapy efficacy and delays tumor relapse. Mouse YUMM1.7 cells were injected s.c. into syngeneic C57BL/6 mice. When tumor volume reached 100 mm3, mice were administered vehicle, BRAFi+MEKi combination, Nintedanib, Pirfenidone or the triple combinations of BRAFi+MEKi and Nintedanib or BRAFi+MEKi and Pirfenidone. Representative median graphics show tumor growth following treatment (n=3 mice per group). Treatment: Oral gavage 3 times per week. Vemurafenib (BRAFi): 30 mg/kg; Trametinib (MEKi): 0.3 mg/kg; Nintedanib: 50 mg/kg; Pirfenidone: 100 mg/kg. Oral gavage 3 times per week.
Mouse experiments were carried out according to the Institutional Animal Care and the local ethical committee. 4×105 YUMNI1.7 cells were injected in both flanks of C57BL/6 mice. Tumors were measured with caliper and treatments were started when the tumors reached a volume of 0.1 cm3, after randomization of mice into control and test groups. Vemurafenib (30 mg/kg), Trametinib (0.3 mg/kg), and Nintedanib (50 mg/kg) were administered by oral gavage three times per week. Control mice were treated with vehicle only. Animals were sacrificed when the tumors reached a volume of 1 cm3. After animal sacrifice, tumors were dissected, weighed and snap-frozen in liquid nitrogen for RNA or protein extraction and immunofluorescence analysis (embedded in OCT from Tissue-Tek). Tumors for picrosirius red staining were fixed in formalin.

YUMM 1.7 tumors = test: ECM remodeling in YUMM1.7 tumors (picrosirius red collagen staining, qPCR of ECM, myofibroblast and pro-fibrotic markers); assay type: in vivo, mouse; conditions: co-administration of Nintedanib with MAPKi; data not shown
Method: as §2, with “Heatmaps describing gene expression fold changes were prepared using MeV software. cDNAs from tumors were prepared from 100 ng of RNA using Fluidigm Reverse Transcription Master Mix (Fluidigm PN 100-647297).” left out, “[…])” for “DELTAgene™ Assay kits)”, “ArrayTM” for “Array™”, “software. Collagen in paraffin-embedded tumors was stained with picrosirius red using standard protocols as described (Girard et al., 2020). Tumor sections were analyzed by polarized light microscopy. Images were acquired under polarized illumination using a light transmission microscope (Zeiss PALM, at 10× magnification). […]” for “software.”

COC(=O)c1ccc2c(c1)NC(=O)/C2=C(\Nc1ccc(N(C)C(=O)CN2CCN(C)CC2)cc1)c1ccccc1 [Nintedanib]
cell survival (viability) (M238R cells [1]; BRAFi-resistant M238R cells, Nintedanib alone (2 μM)): no effect
sensitivity to BRAF and MEK co-inhibition (cell viability) (M238R cells [1]; M238R cells, Nintedanib 2 μM plus Vemurafenib/Trametinib 5 μM): restored sensitivity
cell survival (viability) (M238P cells; BRAFi-sensitive M238P cells, Nintedanib alone (2 μM)): no effect
effect on the inhibitory effect of BRAFi plus MEKi on cell viability (M238P cells; M238P cells, Nintedanib 2 μM plus Vemurafenib/Trametinib 1 μM): potentiated significantly the inhibitory effect
ECM and fibrotic-like signature (M238R cells [2]; Nintedanib at two different doses): reverted
PDL1 expression (M238R cells [2]): reduced
BRAFi-induced ECM-related signature and myofibroblast markers such as ACTA2, MYL9 and LOXL2 (M238P melanoma cells): strongly attenuated
differentiation marker MITF expression (M238P melanoma cells; under BRAFi): prevented the downregulation
gene expression of phenotypic markers such as PDL1 and NGFR (M238P melanoma cells; under BRAFi): reduced
effect on MAPK-targeted therapy efficacy and tumor relapse ([3]; BRAFi/MEKi-treated YUMM1.7 melanoma, n=3, Nintedanib 50 mg/kg or Pirfenidone 100 mg/kg added to Vemurafenib 30 mg/kg + Trametinib 0.3 mg/kg): enhances MAPK-targeted therapy efficacy and prevents tumor relapse
anti-melanoma effect ([3]; YUMM1.7 s.c. in C57BL/6 mice, Nintedanib 50 mg/kg alone, oral gavage three times per week): did not display any anti-melanoma effect
tumor growth ([3]; YUMM1.7 s.c. in C57BL/6 mice, oral gavage three times per week): slightly slowing down tumor growth but not triggering tumor volume decrease
MAPKi-induced ECM remodeling responses in tumors (YUMM 1.7 tumors): suppressed
